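Each compound was tested at five concentrations against cells in 96-well plates for 48 hours. The concentration for full growth arrest is given as TGI.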 *1 amine or outer side, *2 acyl side, *3 side chain or, on linkers, in order; H or OH if unused. Where a SMILES comes first, the peptide text is derived from it. Bridges are numbered along the chain shown (N, C = ends). Roman numbers before positions name the chains, in order. [ ]: non-standard residue; d: D form. Actinocin(9to1) = Cc1c2oc3c(C)ccc(C(=O)[*:1])c3nc-2c(C(=O)[*:2])c(N)c1=O; NMeH = CN[CH](Cc1c[nH]cn1)C(=O)O; Sar = CNCC(=O)O
Experiments:
Experiment in all cases: NCI tumour cell line growth inhibition, 48 h
[1] = tested on: CCRF-CEM leukemia
[2] = tested on: UO-31 renal
[3] = tested on: SK-OV-3 ovarian
[4] = tested on: HCT-15 colon
[5] = tested on: OVCAR-4 ovarian
[6] = tested on: SF-268 CNS
[7] = tested on: NCI/ADR-RES ovarian
[8] = tested on: OVCAR-8 ovarian
[9] = tested on: RPMI-8226 leukemia
[10] = tested on: MDA-MB-435
[11] = tested on: SK-MEL-2 melanoma
[12] = tested on: NCI-H23 lung
[13] = tested on: EKVX NSCLC
[14] = tested on: U251 CNS
[15] = tested on: COLO 205 colon
[16] = tested on: SF-295 CNS
[17] = tested on: K-562 leukemia
[18] = tested on: UACC-257 melanoma
[19] = tested on: HCC-2998 colon
[20] = tested on: HOP-92 NSCLC
[21] = tested on: ACHN renal
[22] = tested on: IGROV1 ovarian
[23] = tested on: 786-0 renal
[24] = tested on: MCF7 breast
[25] = tested on: OVCAR-3 ovarian
[26] = tested on: KM12 colon
[27] = tested on: T-47D breast
[28] = tested on: SNB-19 CNS
[29] = tested on: A549 NSCLC
[30] = tested on: NCI-H460 lung
[31] = tested on: MDA-MB-231 breast
[32] = tested on: LOX IMVI melanoma
[33] = tested on: UACC-62 melanoma
[34] = tested on: SNB-75 CNS
[35] = tested on: SN12C renal
[36] = tested on: HT29 colon
[37] = tested on: MALME-3M melanoma
[38] = tested on: PC-3 prostate
[39] = tested on: M14 melanoma
[40] = tested on: SK-MEL-28 melanoma
[41] = tested on: SW-620 colon
[42] = tested on: SF-539 CNS
[43] = tested on: BT-549 breast
[44] = tested on: HL-60(TB) leukemia
[45] = tested on: NCI-H522 lung
[46] = tested on: NCI-H226 lung
[47] = tested on: OVCAR-5 ovarian
[48] = tested on: MOLT-4 leukemia
[49] = tested on: HOP-62 NSCLC
[50] = tested on: TK-10 renal
[51] = tested on: SK-MEL-5 melanoma
[52] = tested on: RXF 393 renal
[53] = tested on: SR leukemia
[54] = tested on: HS 578T breast
[55] = tested on: CAKI-1 renal
[56] = tested on: MDA-N
[57] = tested on: A498 renal
[58] = tested on: DU-145 prostate
[59] = tested on: HCT-116 colon

Cc1c2oc3c(C)ccc(C(=O)NC4C(=O)NC(C(C)C)C(=O)N5CCCC5C(=O)N(C)CC(=O)N(C)C(Cc5cnc[nH]5)C(=O)OC4C)c3nc-2c(C(=O)NC2C(=O)NC(C(C)C)C(=O)N3CCCC3C(=O)N(C)CC(=O)N(C)C(Cc3cnc[nH]3)C(=O)OC2C)c(N)c1=O (centres undefined) (I: TVP[Sar][NMeH] / II: TVP[Sar][NMeH]; ester I:1-I:C, II:1-II:C; linker I:N-II:N via Actinocin(9to1); configuration not given here) was tested, and the TGI [1] was over 100 µM, the TGI [2] was over 100 µM and the TGI [3] was over 100 µM. It also gave a TGI [4] of over 100 µM, a TGI [5] of over 100 µM and a TGI [6] of over 100 µM. The TGI [7] was over 100 µM, the TGI [8] was over 100 µM and the TGI [9] was over 100 µM. The TGI [10] was over 100 µM, the TGI [11] was over 100 µM and the TGI [12] was over 100 µM. The TGI [13] was over 100 µM, the TGI [14] was over 100 µM and the TGI [15] was over 100 µM. For the same compound, the TGI [16] was over 100 µM, the TGI [17] was over 100 µM and the TGI [18] was over 100 µM. For the same compound, the TGI [19] was over 100 µM, the TGI [20] was over 100 µM and the TGI [21] was over 100 µM. The TGI [22] was over 100 µM, the TGI [23] was over 100 µM and the TGI [24] was over 100 µM. The TGI [25] was over 100 µM, the TGI [26] was over 100 µM and the TGI [27] was over 100 µM. The TGI [28] was over 100 µM, the TGI [29] was over 100 µM and the TGI [30] was over 100 µM. For the same compound, the TGI [31] was over 100 µM, the TGI [32] was over 100 µM and the TGI [33] was over 100 µM. The TGI [34] was over 100 µM, the TGI [35] was over 100 µM and the TGI [36] was over 100 µM. It also gave a TGI [37] of over 100 µM, a TGI [38] of over 100 µM and a TGI [39] of over 100 µM. The TGI [40] was over 100 µM, the TGI [41] was over 100 µM and the TGI [42] was over 100 µM. It also gave a TGI [43] of over 100 µM, a TGI [44] of over 100 µM and a TGI [45] of over 100 µM. It also gave a TGI [46] of over 100 µM, a TGI [47] of over 100 µM and a TGI [48] of over 100 µM. The TGI [49] was over 100 µM, the TGI [50] was over 100 µM and the TGI [51] was 55.9 µM. For the same compound, the TGI [52] was 51.9 µM, the TGI [53] was over 100 µM and the TGI [54] was over 100 µM. It also gave a TGI [55] of over 100 µM and a TGI [56] of 81.4 µM.
In the case of C/C=C(\C)C(=O)OC1CC(OC(C)=O)C2(C(=O)OC)COC3C2C1(C)C1C2(C(=O)OC)OCC1(C3O)C1(O)C3CC(C4(O)C=COC4O3)C1(C)O2 (centres undefined), the TGI [2] is reported as over 100 µM, the TGI [3] is reported as over 100 µM and the TGI [4] is reported as over 100 µM. For the same compound, the TGI [5] was over 100 µM, the TGI [6] was over 100 µM and the TGI [7] was over 100 µM. The TGI [8] was over 100 µM, the TGI [9] was over 100 µM and the TGI [10] was over 100 µM. The TGI [11] was over 100 µM, the TGI [12] was over 100 µM and the TGI [13] was over 100 µM. The TGI [14] was over 100 µM, the TGI [15] was over 100 µM and the TGI [16] was over 100 µM. The TGI [17] was over 100 µM, the TGI [18] was over 100 µM and the TGI [19] was over 100 µM. For the same compound, the TGI [20] was over 100 µM, the TGI [57] was over 100 µM and the TGI [21] was over 100 µM. It also gave a TGI [22] of over 100 µM, a TGI [23] of over 100 µM and a TGI [24] of over 100 µM. For the same compound, the TGI [25] was over 100 µM, the TGI [26] was over 100 µM and the TGI [27] was over 100 µM. The TGI [29] was over 100 µM, the TGI [30] was over 100 µM and the TGI [31] was over 100 µM. It also gave a TGI [58] of over 100 µM, a TGI [32] of over 100 µM and a TGI [33] of over 100 µM. It also gave a TGI [34] of over 100 µM, a TGI [35] of over 100 µM and a TGI [36] of over 100 µM. For the same compound, the TGI [38] was over 100 µM, the TGI [39] was over 100 µM and the TGI [40] was over 100 µM. It also gave a TGI [41] of over 100 µM, a TGI [42] of over 100 µM and a TGI [43] of over 100 µM. For the same compound, the TGI [44] was over 100 µM, the TGI [45] was over 100 µM and the TGI [59] was over 100 µM. For the same compound, the TGI [46] was over 100 µM, the TGI [47] was over 100 µM and the TGI [48] was over 100 µM. The TGI [49] was over 100 µM, the TGI [50] was over 100 µM and the TGI [51] was over 100 µM. It also gave a TGI [52] of over 100 µM, a TGI [53] of over 100 µM and a TGI [54] of over 100 µM. For the same compound, the TGI [55] was over 100 µM and the TGI [56] was over 100 µM.
COc1ccc(-c2c(C)c(C(=O)O)nc(-c3ccc4c(O)c(OC)c5c(c4n3)=NC(C)(C)N=5)c2N)c(O)c1OC was tested, and the TGI [1] was 24.4 µM, the TGI [2] was 27.5 µM and the TGI [3] was 65.6 µM. For the same compound, the TGI [4] was over 100 µM, the TGI [5] was over 100 µM and the TGI [6] was 21.6 µM. It also gave a TGI [7] of 58 µM, a TGI [8] of 21.5 µM and a TGI [9] of 86.6 µM. For the same compound, the TGI [10] was 30.7 µM, the TGI [11] was 41.4 µM and the TGI [12] was 6.95 µM. It also gave a TGI [13] of over 100 µM, a TGI [14] of 25.8 µM and a TGI [15] of 77.1 µM. The TGI [16] was 38.6 µM, the TGI [17] was 47.9 µM and the TGI [18] was 98.4 µM. For the same compound, the TGI [19] was 35.7 µM, the TGI [20] was over 100 µM and the TGI [21] was 27.7 µM. The TGI [22] was over 100 µM, the TGI [23] was 31.6 µM and the TGI [24] was over 100 µM. It also gave a TGI [25] of 43.2 µM, a TGI [26] of 33.1 µM and a TGI [27] of over 100 µM. The TGI [28] was 95 µM, the TGI [29] was 55.5 µM and the TGI [30] was 17 µM. It also gave a TGI [31] of over 100 µM, a TGI [58] of over 100 µM and a TGI [32] of 25.7 µM. The TGI [33] was 62.2 µM, the TGI [34] was 11.4 µM and the TGI [35] was 41.7 µM. It also gave a TGI [36] of over 100 µM, a TGI [37] of 17.7 µM and a TGI [38] of over 100 µM. For the same compound, the TGI [39] was 74.6 µM, the TGI [40] was 59.8 µM and the TGI [41] was 35.4 µM. It also gave a TGI [42] of 35.5 µM, a TGI [43] of 82.7 µM and a TGI [44] of 37.1 µM. The TGI [45] was 24.5 µM, the TGI [59] was 52.1 µM and the TGI [46] was 63.1 µM. For the same compound, the TGI [47] was over 100 µM, the TGI [48] was 29.7 µM and the TGI [49] was 44 µM. It also gave a TGI [50] of 72.7 µM, a TGI [51] of 25.4 µM and a TGI [52] of 51.7 µM. For the same compound, the TGI [53] was 1.94 µM, the TGI [54] was over 100 µM and the TGI [56] was 39.9 µM.

Reference: PubChem BioAssay (NCI)
